Patent publication US20110034424A1, “METHOD FOR THE LONG TERM NSAID USE” (SUCAMPO AG, priority 2009, published 2011)

Key:
[1] = system: patients with osteoarthritis and/or rheumatoid arthritis; assay: 12-week double-blinded, randomized, dose-ranging, placebo-controlled phase 2 trial of cobiprostone with naproxen; type: in vivo, human; details: for Drug-related gastrointestinal adverse event rate / Median number of days in the treatment period / Related adverse event: diarrhea / Related adverse event: gastritis / Related adverse event: nausea / Related overall adverse event rate / Withdrawal rate from the trial due to an adverse event / Retention rate at Week 8 / Retention rate at Week 12: naproxen 500 mg twice a day
Protocol: A total of 124 patients with osteoarthritis and/or rheumatoid arthritis were enrolled in 12-week, double-blinded, randomized, dose-ranging and placebo-controlled phase 2 trial. All patients in the trial received 500 mg of naproxen twice a day. There were four treatment cohorts: one cohort received placebo while the other three cohorts received 18 mcg of cobiprostone either once, twice or three times a day (daily totals of 18, 36 or 54 mcg, respectively).
Retention rate and withdrawal rate were evaluated by the following definitions.
Retention rate: The number of intent-to-treat subjects that remained in the trial at a specified week.
Withdrawal Rate: The number of randomized subjects that discontinued the trial. The reasons for discontinuation were:
b. Discontinued due to ulcer
The withdrawal rate can be expressed/calculated for a single reason such as adverse events, or for any combination of the discontinuation reasons.

[2] = system: ulcers induced by indomethacin and by stress; details: cited from earlier work

## CC[C@H](C)CC(F)(F)[C@@]1(O)CC[C@H]2[C@@H](CC(=O)[C@@H]2CCCCCCC(=O)O)O1 [cobiprostone, 7{(2R,4aR,5R,7aR)-2-[(3S)-1,1-difluoro-3-methylpentyl]-2-hydroxy-6-oxooctahydrocyclopenta[b]pyran-5-yl}heptanoic acid]
[1]; Week 12, 18, 36 and 54 mcg/day, dose-dependent increase
  Retention rates at Week 12 compared to naproxen with placebo: statistically significant
[1]; cobiprostone 18 mcg/day
  Drug-related gastrointestinal adverse event rate: 60.0%
  Median number of days in the treatment period: 60.0 days
  Related adverse event: diarrhea: 13.3%
  Related adverse event: gastritis: 13.3%
  Related adverse event: nausea: 10.0%
  Related overall adverse event rate: 60.0%
  Withdrawal rate from the trial due to an adverse event: 13.3%
  Retention rate at Week 8: 67%
[1]; cobiprostone 18 mcg/day, Week 12
  Retention rate at Week 12: 47%
[1]; cobiprostone 36 mcg/day
  Drug-related gastrointestinal adverse event rate: 67.7%
  Median number of days in the treatment period: 82.0 days
  Related adverse event: diarrhea: 32.3%
  Related adverse event: gastritis: 6.5%
  Related adverse event: nausea: 16.1%
  Related overall adverse event rate: 71.0%
  Withdrawal rate from the trial due to an adverse event: 16.1%
  Retention rate at Week 8: 66%
[1]; cobiprostone 36 mcg/day, Week 12
  Retention rate at Week 12: 52%
[1]; cobiprostone 54 mcg/day
  Drug-related gastrointestinal adverse event rate: 67.7%
  Median number of days in the treatment period: 83.0 days
  Related adverse event: diarrhea: 35.5%
  Related adverse event: gastritis: 9.7%
  Related adverse event: nausea: 16.1%
  Related overall adverse event rate: 67.7%
  Withdrawal rate from the trial due to an adverse event: 16.1%
  Retention rate at Week 8: 90%
[1]; cobiprostone 54 mcg/day, Week 12
  Retention rate at Week 12: 77%
[1]; overall, 18-54 mcg/day with naproxen 500 mg twice a day
  Tolerability in patients receiving NSAID therapy: well tolerated
[2]; animal studies, indomethacin-induced ulcers
  Formation of ulcers induced by indomethacin: protected against formation of ulcers
[2]; animal studies, stress-induced ulcers
  Formation of ulcers induced by stress: protected against formation of ulcers
[2]
  Safety in animal studies: acceptable safety
